The text below walks through data of patent US20250171463A1 (BIOGEN MA INC., priority 2022, published 2025).

SMILES strings stand for the structures.

The target of the assay is T1, EBP (Homo sapiens, UniProt Q15125).
T1 construct: HEK293T cells were utilized as the source of EBP enzyme; endogenous in cells; host or cells: HEK293T
Put plainly: EBP Functional Assay (EBP immunoaffinity LC-MS assay). The format is biochemical. The conditions noted are these: EBP enzyme from HEK293T cells; 30 min with inhibitor, then zymosterol-d5, 37° C., 4 h; percent conversion to dehydrolathosterol-d5 by LC-APCI MRM MS. Put shortly: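 IC50 comes from a 4-parameter logistic fit of zymosterol-d5-to-product percent conversion, measured by LC-APCI MRM MS after sterol extraction. Compounds were preincubated 30 min with EBP from HEK293T cells before deuterated substrate was added for 4 h at 37° C; Tasin-1 served as reference.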

T1 sequence (Q15125 whole entry): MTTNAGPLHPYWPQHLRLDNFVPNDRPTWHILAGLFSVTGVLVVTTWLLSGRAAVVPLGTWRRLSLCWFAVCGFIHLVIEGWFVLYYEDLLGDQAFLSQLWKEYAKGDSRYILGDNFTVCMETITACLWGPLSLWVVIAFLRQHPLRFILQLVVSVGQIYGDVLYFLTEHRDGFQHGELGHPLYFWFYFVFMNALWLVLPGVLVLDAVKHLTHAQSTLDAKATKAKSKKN

As usually defined, the IC50 is the concentration that gives 50% inhibition. A higher IC50 goes with weaker potency in that assay. `Cn1nc(C(F)(F)F)cc1S(=O)(=O)N1CC2(CN(CC3CCOCC3)C2)C1` [Example 202, 2-((1-methyl-3-(trifluoromethyl)-1H-pyrazol-5-yl)sulfonyl)-6-((tetrahydro-2H-pyran-4-yl)methyl)-2,6-diazaspiro[3.3]heptane]: the IC50 is below 100 nM.

`C=Cc1nc(C(F)(F)F)ccc1S(=O)(=O)N1CC2(CN(C3CCOCC3)C2)C1` [Example 203, 2-(tetrahydro-2H-pyran-4-yl)-6-((6-(trifluoromethyl)-2-vinylpyridin-3-yl)sulfonyl)-2,6-diazaspiro[3.3]heptane] came in with an IC50 below 100 nM.

`CCc1nc(C(F)(F)F)ccc1S(=O)(=O)N1CC2(CN(C3CCOCC3)C2)C1` [Example 204, 2-((2-ethyl-6-(trifluoromethyl)pyridin-3-yl)sulfonyl)-6-(tetrahydro-2H-pyran-4-yl)-2,6-diazaspiro[3.3]heptane] gave a 50% inhibitory concentration (IC50) below 100 nM.

Take `CCc1nc(C(F)F)ccc1S(=O)(=O)N1CC2(CN(C3CCOCC3)C2)C1` [Example 205, 2-((6-(difluoromethyl)-2-ethylpyridin-3-yl)sulfonyl)-6-(tetrahydro-2H-pyran-4-yl)-2,6-diazaspiro[3.3]heptane]: the IC50 is below 100 nM.

On to `CCc1nc(C(F)F)ccc1S(=O)(=O)N1CC2(CN(C3CC4(COC4)C3)C2)C1` [Example 206, 2-((6-(difluoromethyl)-2-ethylpyridin-3-yl)sulfonyl)-6-(2-oxaspiro[3.3]heptan-6-yl)-2,6-diazaspiro[3.3]heptane], for which the concentration for half-maximal inhibition (IC50) was in the range of 100 to 250 nM.

In turn, `CCc1nc(C(F)F)ccc1S(=O)(=O)N1CC2(C1)CN([C@H]1CC[C@](C)(O)CC1)C2` [Example 207, (1r,4r)-4-(6-((6-(difluoromethyl)-2-ethylpyridin-3-yl)sulfonyl)-2,6-diazaspiro[3.3]heptan-2-yl)-1-methylcyclohexan-1-ol] gave a half-maximal inhibitory concentration (IC50) of 250 to 4000 nM.

In the case of `CCc1nc(C(F)F)ccc1S(=O)(=O)N1CC2(CN(C3CCC(C)(O)CC3)C2)C1` (stereo not shown) [Example 208, (1s,4s)-4-(6-((6-(difluoromethyl)-2-ethylpyridin-3-yl)sulfonyl)-2,6-diazaspiro[3.3]heptan-2-yl)-1-methylcyclohexan-1-ol], the IC50 was 100 to 250 nM.

The compound `O=S(=O)(c1ccc(C(F)(F)F)nc1C1CC1)N1CC2(CN(CC3COC3)C2)C1` [Example 209, 2-((2-cyclopropyl-6-(trifluoromethyl)pyridin-3-yl)sulfonyl)-6-(oxetan-3-ylmethyl)-2,6-diazaspiro[3.3]heptane] displayed a half-maximal inhibitory concentration (IC50) of 100 to 250 nM.

As for `Cn1nc(C(C)(F)F)cc1S(=O)(=O)N1CC2(CN(CC3CCOCC3)C2)C1` [Example 210, 2-((3-(1,1-difluoroethyl)-1-methyl-1H-pyrazol-5-yl)sulfonyl)-6-((tetrahydro-2H-pyran-4-yl)methyl)-2,6-diazaspiro[3.3]heptane], the IC50 lay within 100 to 250 nM.

`O=S(=O)(c1ccc(C(F)(F)F)cc1C(F)(F)F)N1CC2(CN(CC3CCOCC3)C2)C1` [Example 211, 2-((2,4-bis(trifluoromethyl)phenyl)sulfonyl)-6-((tetrahydro-2H-pyran-4-yl)methyl)-2,6-diazaspiro[3.3]heptane] gave an IC50 of 100 to 250 nM.

Regarding `O=S(=O)(c1ccc(Cl)nc1C(F)(F)F)N1CC2(CN(C3CCOCC3)C2)C1` [Example 213, 2-((6-chloro-2-(trifluoromethyl)pyridin-3-yl)sulfonyl)-6-(tetrahydro-2H-pyran-4-yl)-2,6-diazaspiro[3.3]heptane], the 50% inhibitory concentration (IC50) lay within 100 to 250 nM.

`O=S(=O)(c1ccc(OC(F)(F)F)cc1F)N1CC2(CN(C3CCOCC3)C2)C1` [Example 214, 2-((2-fluoro-4-(trifluoromethoxy)phenyl)sulfonyl)-6-(tetrahydro-2H-pyran-4-yl)-2,6-diazaspiro[3.3]heptane] came in with an IC50 of 250 to 4000 nM.

For the compound `Cc1cc(C(F)(F)F)ncc1S(=O)(=O)N1CC2(CN(CC3CCOCC3)C2)C1` [Example 217, 2-((4-methyl-6-(trifluoromethyl)pyridin-3-yl)sulfonyl)-6-((tetrahydro-2H-pyran-4-yl)methyl)-2,6-diazaspiro[3.3]heptane], the half-inhibitory concentration (IC50) is below 100 nM.

In turn, `Cn1nc(C(F)(F)F)cc1S(=O)(=O)N1CC2(CN(CC3COC3)C2)C1` [Example 218, 2-((1-methyl-3-(trifluoromethyl)-1H-pyrazol-5-yl)sulfonyl)-6-(oxetan-3-ylmethyl)-2,6-diazaspiro[3.3]heptane] came in with an IC50 of 100 to 250 nM.

`Cn1nc(C2CC2)cc1S(=O)(=O)N1CC2(CN(CC3CCOCC3)C2)C1` [Example 219, 2-((3-cyclopropyl-1-methyl-1H-pyrazol-5-yl)sulfonyl)-6-((tetrahydro-2H-pyran-4-yl)methyl)-2,6-diazaspiro[3.3]heptane] yielded an IC50 of 100 to 250 nM.

`O=S(=O)(c1ccc(OC(F)(F)F)cc1F)N1CC2(CN(CC3CCOCC3)C2)C1` [Example 220, 2-((2-fluoro-4-(trifluoromethoxy)phenyl)sulfonyl)-6-((tetrahydro-2H-pyran-4-yl)methyl)-2,6-diazaspiro[3.3]heptane] gave an IC50 of 250 to 4000 nM.

For `Cc1cc(C(F)(F)F)cnc1S(=O)(=O)N1CC2(CN(C3CCOCC3)C2)C1` [Example 221, 2-((3-methyl-5-(trifluoromethyl)pyridin-2-yl)sulfonyl)-6-(tetrahydro-2H-pyran-4-yl)-2,6-diazaspiro[3.3]heptane], the half-inhibitory concentration (IC50) was in the range of 250 to 4000 nM.

The compound `Cc1nc(C(F)(F)F)ccc1S(=O)(=O)N1CC2(CN(C3CCC(C)(O)CC3)C2)C1` (stereo not shown) [Example 222, 1-methyl-4-(6-((2-methyl-6-(trifluoromethyl)pyridin-3-yl)sulfonyl)-2,6-diazaspiro[3.3]heptan-2-yl)cyclohexan-1-ol] had an IC50 of 100 to 250 nM.

As for `Cc1nc(C(F)(F)F)ccc1S(=O)(=O)N1CC2(CN(C3CCC(C)(O)CC3)C2)C1` (stereo not shown) [Example 223, 1-methyl-4-(6-((2-methyl-6-(trifluoromethyl)pyridin-3-yl)sulfonyl)-2,6-diazaspiro[3.3]heptan-2-yl)cyclohexan-1-ol], the concentration for half-maximal inhibition (IC50) lay in the range of 250 to 4000 nM.

`Cc1cc(C(F)(F)F)cnc1S(=O)(=O)N1CC2(CN(CC3CCOCC3)C2)C1` [Example 224, 2-((3-methyl-5-(trifluoromethyl)pyridin-2-yl)sulfonyl)-6-((tetrahydro-2H-pyran-4-yl)methyl)-2,6-diazaspiro[3.3]heptane] gave a half-inhibitory concentration (IC50) of 250 to 4000 nM.

For the compound `O=S(=O)(c1c(F)cc(OC(F)F)cc1F)N1CC2(CN(CC3CCOCC3)C2)C1` [Example 225, 2-((4-(difluoromethoxy)-2,6-difluorophenyl)sulfonyl)-6-((tetrahydro-2H-pyran-4-yl)methyl)-2,6-diazaspiro[3.3]heptane], the concentration for half-maximal inhibition (IC50) lay in the range of 250 to 4000 nM.

The compound `O=S(=O)(c1ccc(OC(F)F)cc1F)N1CC2(CN(CC3CCOCC3)C2)C1` [Example 226, 2-((4-(difluoromethoxy)-2-fluorophenyl)sulfonyl)-6-((tetrahydro-2H-pyran-4-yl)methyl)-2,6-diazaspiro[3.3]heptane] had an IC50 of 250 to 4000 nM.

On to `O=S(=O)(c1ccc(OC(F)F)cc1F)N1CC2(CN(C3CCOCC3)C2)C1` [Example 227, 2-((4-(difluoromethoxy)-2-fluorophenyl)sulfonyl)-6-(tetrahydro-2H-pyran-4-yl)-2,6-diazaspiro[3.3]heptane], for which the concentration for half-maximal inhibition (IC50) was in the range of 100 to 250 nM.

`N#Cc1cc(C(F)(F)F)ccc1S(=O)(=O)N1CC2(CN(CC3CCOCC3)C2)C1` [Example 228, 2-((6-((tetrahydro-2H-pyran-4-yl)methyl)-2,6-diazaspiro[3.3]heptan-2-yl)sulfonyl)-5-(trifluoromethyl)benzonitrile] gave a half-inhibitory concentration (IC50) of 250 to 4000 nM.

On to `O=S(=O)(c1ccc(C(F)(F)F)nc1)N1CC2(CN(CC3CCOCC3)C2)C1` [Example 229, 2-((tetrahydro-2H-pyran-4-yl)methyl)-6-((6-(trifluoromethyl)pyridin-3-yl)sulfonyl)-2,6-diazaspiro[3.3]heptane], for which the IC50 lay within 250 to 4000 nM.
